Here are results for 13 compounds from publication PMC7601700, “Interaction of Cytochrome C Oxidase with Steroid Hormones” (Cells, 2020).

What is called IC50 is the concentration at which inhibition is half-maximal. By inhibition is commonly meant the share of the control response that was lost under treatment.

One experiment deals with CcO from R. sphaeroides. Details: method as in PMID 24073649. Conditions: cited from earlier work.
The target of experiment [1] is T1, cytochrome c oxidase (CcO) purified from bovine heart (Bos taurus, UniProt P00396+P68530).
T1 construct: Cytochrome oxidase was isolated from bovine heart mitochondria; from tissue; host or cells: bovine heart mitochondria
Put plainly: Cytochrome oxidase activity assay (oxygen uptake, Clark-type electrode; ascorbate + TMPD + cytochrome c). The experiment is classed as biochemical. Conditions: for Inhibition of CcO Oxidase Activity, DM Influence: effect of dodecyl-maltoside on the inhibition; for slope tangent of Ki(app) vs [DM], ratio Ki:Kc: ratio of the affinities of hormone and DM; for Kd: X-axis intercept. As to the method: Cytochrome oxidase was isolated from bovine heart mitochondria using the modified method of Fowler et al. as described previously by Vygodina et al..
Cytochrome oxidase activity assay. Oxygen uptake rates were measured with a covered Clark-type electrode by an Oxytherm instrument (Hansatech, UK) in a thermostatted cell at 25 °C with permanent stirring. The assays were performed in a basic medium containing 50 mM Hepes, 50 mM Tris, pH 7.5 and 0.1 mM EDTA. The medium was also supplemented with indicated concentrations of DM which are given throughout the text in mM (0.05% ≈ 1.0 mM DM). 5 mM ascorbate, 0.1 mM TMPD and 10 µM cytochrome c were used as the oxidation substrate. Other details are indicated in the legends to figures.
In order to determine Ki(app), the titration curves in Figure 2B were approximated by Equation (2) that connects normalized activity, v, with testosterone concentration, [I].

The target of experiment [2] is T1, cytochrome c oxidase (CcO) purified from bovine heart. Put plainly: Peroxidase activity of CcO (o-dianisidine peroxidation by H2O2). Conditions: for Inhibition of CcO Peroxidase Activity: 0.2 mM o-dianisidine, 4 mM H2O2, 0.6 µM CcO. Format: biochemical. The procedure:
Peroxidase activity of CcO was assayed as described by Vygodina and Konstantinov by following spectrophotometrically peroxidation of 0.2 mM o-dianisidine at 432 nm minus 580 nm in a dual-wavelength SLM Aminco DW-2000 spectrophotometer (USA). The reaction mixture contained 0.6 µM CcO in the aerobic basic medium supplemented with different concentrations of DM. No o-dianisidine oxidase activity was observed and the peroxidase reaction was initiated by addition of 4 mM H2O2.

Experiment [3] concerns the target T2, cytochrome c oxidase (CcO) purified from bovine heart, heme a3 (Bos taurus, UniProt P00396+P68530).
T2 construct: Cytochrome oxidase was isolated from bovine heart mitochondria; from tissue; host or cells: bovine heart mitochondria
As to the kind of experiment: Absorption spectra of CcO (hormone-induced difference spectra). The experiment is classed as binding. The conditions noted are these: for Spectral Response Induced in Oxidized CcO: air-oxidized CcO; for Magnitude ε of the spectral shift induced in oxidized CcO: estradiol: 1 mM hormone, pH 8.0, 437 minus 415 nm. As to the method: Absorption spectra of CcO were recorded with a Cary 300 Bio spectrophotometer (Varian, Palo Alto, CA, USA) in semi-micro cuvettes with blackened walls and 10 mm light pathway (Hellma, Müllheim, Germany), in the basic medium at pH 8.0 supplemented with indicated different additions. The kinetics of spectral changes was monitored in a dual-wavelength mode in a SLM Aminco DW-2000 spectrophotometer.

For a further experiment, the system named is human endothelial cells. Details: method as in PMID 17267145. Conditions: read-out: IC50% for inhibition of cell growth; cited from earlier work.
In the next experiment the target is R. sphaeroides CcO (Cereibacter sphaeroides, UniProt P33517+Q03736). As to the kind of experiment: Preliminary experiments on inhibition of R. sphaeroides CcO. Format: biochemical, Rhodobacter sphaeroides.
The target in experiment [4] is T3, cytochrome c oxidase (CcO) purified from bovine heart, electron transfer from heme a to heme a3 (Bos taurus, UniProt P00396+P68530).
T3 construct: Cytochrome oxidase was isolated from bovine heart mitochondria; from tissue; host or cells: bovine heart mitochondria
As to the kind of experiment: Stopped-flow kinetics of CcO (heme a3) reduction by dithionite in the presence of RuAm. The experiment is classed as biochemical. The conditions noted are these: for rate constant of heme a3 reduction, rapid phase: control 105.3; for rate constant of heme a3 reduction, slow phase: control 6.15. The procedure:
The kinetics of CcO reduction by dithionite in the presence of ruthenium hexammine (RuAm) was studied in an Applied Photophysics SX-20 stopped-flow spectrophotometer (UK) operated in a diode array mode, using a 20 µL cell with 1 cm optical pathway. The spectra in the 280–720 nm range were collected with a minimal interval of 1 ms. The assay medium contained 100 mM Hepes, 100 mM Tris, 50 mM KCl, 100 µM EGTA, catalase (2 µL/5 mL of the solution, indicated activity 23,000 units/mg protein), 0.05% DM, pH 8.0. Aerobic buffer with 6 µM CcO and 0.4 mM or 1 mM estradiol was rapidly mixed with the equal volume of the same buffer containing 40 mM sodium dithionite and 10 mM RuAm.
Procession of the stopped-flow data was performed with ProKineticist software provided with the Applied Photophysics SX-20 instrument, as well as by using Origin 7 and Origin 9 Microcal software.
We investigated effect of estradiol on the kinetics of electron transfer from heme a to heme a3. To this end, the kinetics of the hemes’ reduction by dithionite in the presence of RuAm was studied. In the experiment shown in Figure 4, 3 µM CcO was mixed rapidly with 20 mM dithionite and 5 mM RuAm and the reaction time course was followed by taking the spectra each ms in the 280–720 nm range in a rapid mixing diode array spectrophotometer.

For experiment [5], the target named is T1, cytochrome c oxidase (CcO) purified from bovine heart. Also noted: method as in the paper is submitted for publication. Conditions: from study on inhibition of CcO by Triton X-100; ref the paper is submitted for publication; read-out: affinity between DM and CcO, Kc; cited from earlier work.
The mark [6] stands for this setting: true Ki extrapolated to zero dodecyl-maltoside (DM) from plot of Ki(app) vs [DM], 25 °C, pH 7.5, read-out: Inhibition of CcO Oxidase Activity, Ki (DM→0).

The structures appear in SMILES notation. “Also recorded” adds a separate entry of the source. Like-named read-outs stand apart in the source and are kept apart here. Some results are limits rather than exact numbers.

Sequence of R. sphaeroides CcO (P33517 whole entry): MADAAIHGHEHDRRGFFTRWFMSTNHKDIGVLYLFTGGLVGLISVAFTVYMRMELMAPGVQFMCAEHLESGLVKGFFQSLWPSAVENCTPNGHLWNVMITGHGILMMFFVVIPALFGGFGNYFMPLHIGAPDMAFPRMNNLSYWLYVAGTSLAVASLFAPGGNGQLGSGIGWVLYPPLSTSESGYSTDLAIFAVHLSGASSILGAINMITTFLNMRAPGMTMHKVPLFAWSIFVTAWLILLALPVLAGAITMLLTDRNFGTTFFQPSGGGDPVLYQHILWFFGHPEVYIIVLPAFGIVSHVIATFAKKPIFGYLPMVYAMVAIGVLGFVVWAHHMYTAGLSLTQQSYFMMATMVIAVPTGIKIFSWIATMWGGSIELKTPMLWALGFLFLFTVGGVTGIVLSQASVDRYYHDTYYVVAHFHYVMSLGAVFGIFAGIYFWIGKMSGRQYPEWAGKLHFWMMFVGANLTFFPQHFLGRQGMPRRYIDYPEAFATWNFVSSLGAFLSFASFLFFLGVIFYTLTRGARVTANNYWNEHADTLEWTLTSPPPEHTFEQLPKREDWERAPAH
Sequence of R. sphaeroides CcO (Q03736 26-290 limits assumed): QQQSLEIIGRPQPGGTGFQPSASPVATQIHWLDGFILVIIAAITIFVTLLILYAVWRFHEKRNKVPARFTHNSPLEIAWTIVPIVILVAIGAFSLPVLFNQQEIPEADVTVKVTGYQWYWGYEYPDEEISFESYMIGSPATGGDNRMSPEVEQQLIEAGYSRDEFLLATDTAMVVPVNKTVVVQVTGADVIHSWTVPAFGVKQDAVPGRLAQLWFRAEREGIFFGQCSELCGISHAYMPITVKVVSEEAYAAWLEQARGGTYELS

`CC1=C(/C=C/C(C)=C/C=C/C(C)=C/C(=O)O)C(C)(C)CCC1` [retinoic acid]: in the experiment with CcO from R. sphaeroides, the “effect on the activity of CcO from R. sphaeroides” value (from here on “effect on the activity of CcO”) is “strongly inhibited”.

Regarding `CC(=O)[C@H]1CC[C@H]2[C@@H]3CCC4=CC(=O)CC[C@]4(C)[C@H]3CC[C@]12C` [Progesterone], the “Inhibition of CcO Oxidase Activity, DM Influence” value (“Inhibition … DM Influence” for short) in experiment [1] is given as “competes 1:1”. Also, in experiment [1] (setting [6]), the Ki is 120 µM. Moreover, the “Inhibition of CcO Peroxidase Activity” value in experiment [2] is recorded as “no”.

Regarding `C=C1CC[C@H](O)C/C1=C/C=C1\CCC[C@]2(C)[C@@H]([C@H](C)CCCC(C)C)CC[C@@H]12` [Cholecalciferol (vitamine D3), Cholecalciferol], in experiment [1], the “Inhibition … DM Influence” value was “competes 1:1”. Also, the Ki in experiment [1] (setting [6]) is 9 µM; in experiment [2] (read-out: Ki for inhibition of CcO peroxidase activity) it was ~200 µM. Also, the “Spectral Response Induced in Oxidized CcO” value (“Spectral Response Induced” below) in experiment [3] is “red shift of a3^3+”. Besides, the “Magnitude ε of the spectral shift induced in oxidized CcO” value in experiment [3] (13 mM DM) is 25 mM^−1⋅cm^−1. For the same compound, the “Inhibition of CcO Peroxidase Activity” value in experiment [2] is recorded as “yes”.

Turning to `CC(C)CCC[C@@H](C)[C@H]1CC[C@H]2[C@@H]3CC=C4C[C@@H](O)CC[C@]4(C)[C@H]3CC[C@]12C` [cholesterol], the “inhibition of the oxidase activity of the bovine heart enzyme” value in experiment [1] (unpublished data of the authors) is recorded as “does not inhibit”.

Regarding `C[C@]12CC[C@H]3[C@@H](CCC4=CC(O)CC[C@@H]43)[C@@H]1CCC2O` (stereo partly shown) [norandrostenediol], the IC50 in the experiment on human endothelial cells was 6000 µM.

With `C[C@]12CC[C@H]3[C@@H](CCC4=CC(=O)CC[C@@H]43)[C@@H]1CC[C@@H]2O` [nandrolone], the IC50 in the experiment with human endothelial cells was 9 µM.

As to `N[C@@H](Cc1cc(I)c(Oc2ccc(O)c(I)c2)c(I)c1)C(=O)O` [thyroid hormone T3], the “effect on the activity of CcO” value in the experiment with CcO from R. sphaeroides is given as “inhibited the enzyme; also recorded: strongly inhibited”.

`C[C@]12CC[C@H](O)CC1=CC[C@@H]1[C@@H]2CC[C@]2(C)C(=O)CC[C@@H]12` [Dehydroepiandrosterone (DHEA), Dehydroepiandrosterone]: in experiment [1], the Ki turned out to be 110 µM and the “Inhibition … DM Influence” value is given as “competes 1:1”. The “Inhibition of CcO Peroxidase Activity” value in experiment [2] is reported as “no”.

For `C[C@]12CC[C@@H]3c4ccc(OC(=O)c5ccccc5)cc4CC[C@H]3[C@@H]1CC[C@@H]2O` [estradiol-3-benzoate], the “inhibition of oxygen consumption (oxidase activity)” value in experiment [1] (0.5 mM estradiol, 1 mM DM) was “approximately by half; also recorded: does inhibit”. For the same compound, in experiment [1] (2 mM estradiol, 1 mM DM), the “inhibition of CcO oxidase activity (fold)” value is listed as ~4 fold. Besides, the “inhibition of CcO oxidase activity” value in experiment [1] (2 mM estradiol, 20 mM DM) is “only a slight inhibition”. Moreover, in experiment [1], the “Inhibition … DM Influence” value is “competes 1:1”. The “slope tangent of Ki(app) vs [DM], ratio Ki:Kc” value in experiment [1] is listed as 0.25. The Ki in experiment [1] (setting [6]) was 370 µM. The “inhibition of R. sphaeroides CcO” value at R. sphaeroides CcO was “inhibition”. In addition, in experiment [3] (1 mM estradiol, 13 mM DM, oxidized CcO), the “time for the spectral shift to reach completion after hormone addition” value was 3 to 5 min. In addition, the “magnitude of spectral shift relative to the effect induced by cyanide” value in experiment [3] (1 mM estradiol, cyanide effect from ref 20) is “ca. 1/5”. Moreover, the “Spectral Response Induced” value in experiment [3] was “red shift of a3^3+”. For the same compound, the “Magnitude ε of the spectral shift induced in oxidized CcO” value in experiment [3] (13 mM DM) was found to be 10 mM^−1⋅cm^−1. Further, in experiment [3] (reduced CcO), the “effect on the absorption spectrum of the reduced CcO” value is recorded as “No effect”. The “rate constant of heme a3 reduction, rapid phase” value in experiment [4] (0.2 mM estradiol, 3 µM CcO, 20 mM dithionite, 5 mM RuAm) came to 67.75 s⁻¹; in experiment [4] (0.5 mM estradiol), 39.6 s⁻¹. Further, the entries for the “rate constant of heme a3 reduction, slow phase” value in experiment [4] (0.2 mM estradiol) and in experiment [4] (0.5 mM estradiol) were 5.3 s⁻¹ and 2.5 s⁻¹, respectively. Besides, the “decrease of the rate constants of both phases of heme a3 reduction” value in experiment [4] (0.5 mM estradiol) is reported as “ca. 60%”. Moreover, the results for the “Inhibition of CcO Peroxidase Activity” value in experiment [2] and in experiment [2] (listed as estradiol) were “no” and “do not inhibit”, respectively. In the experiment on CcO from R. sphaeroides, the “effect on the activity of CcO” value is reported as “did not reveal inhibition”.

For the compound `C[C@]12CC[C@H]3[C@@H](CCC4=CC(=O)CC[C@@]43C)[C@@H]1CC[C@@H]2O` [Testosterone], in the experiment with human endothelial cells, the IC50 is 100 µM. In addition, in experiment [1], the Ki was 80 µM; the “Inhibition … DM Influence” value is “competes 1:1; increases maximal level of inhibition”; the “slope tangent of Ki(app) vs [DM], ratio Ki:Kc” value is given as 0.05. Further, the “maximal level of inhibition by excess testosterone” value in experiment [1] (1 mM DM) is given as “ca. 25%”. Besides, in experiment [1] (4 mM testosterone, 1 mM DM), the “inhibition of CcO oxidase activity” value is listed as “inhibits the activity but weakly”. The “inhibition of CcO oxidase activity” value in experiment [1] (4 mM testosterone, 20 mM DM) was “strong inhibition; also recorded: does inhibit”. For the same compound, the “inhibition of CcO oxidase activity directly observed (fold)” value in experiment [1] (high concentrations of both testosterone and DM (Figure 2A, trace 1: 4 mM testosterone, 20 mM DM)) is recorded as ≤ 3 fold. For the same compound, the inhibition at 100 µM in experiment [1] (read-out: inhibition of bovine oxidase) is 13%. Besides, in experiment [3], the “Spectral Response Induced” value was “no”. Further, the “Inhibition of CcO Peroxidase Activity” value in experiment [2] is listed as “no”. Moreover, the “Inhibition of CcO Peroxidase Activity” value in experiment [2] (listed as testosterone) is listed as “do not inhibit”. Moreover, the “effect on the activity of CcO” value in the experiment with CcO from R. sphaeroides is “did not reveal inhibition”.

As to `C[C@]12CC[C@H]3[C@@H](CCC4=CC(=O)CC[C@@H]43)[C@@H]1CCC2=O` [norandrostenedione], the IC50 in the experiment with human endothelial cells was 500 µM.

`CCCCCCCCCCCCO[C@@H]1O[C@H](CO)[C@@H](O[C@H]2O[C@H](CO)[C@@H](O)[C@H](O)[C@H]2O)[C@H](O)[C@H]1O` [DM, dodecyl-maltoside]: the Kd is 1470 µM in experiment [1] (from plot of Ki(app) for estradiol vs [DM], read-out: dissociation constant for DM in the absence of estradiol, Kc); 1300 µM in experiment [1] (from plot of Ki(app) for testosterone vs [DM], read-out: dissociation constant for DM in the absence of testosterone, Kc); 1200 µM in experiment [5].

As for `C[C@]12CCC(=O)C=C1CC[C@@H]1[C@@H]2CC[C@]2(C)C(=O)CC[C@@H]12` [androstenedione], the IC50 with human endothelial cells was 375 µM.
